Assay: xn = mol fraction of the nth substance listed
Settings: 273.15 K, Liquid, Vibrating tube method

Cc1ccc(C)c(C)c1 [1,2,4-trimethylbenzene] + CCC(C)O
mass density [kg/m3]
Settings	x2 = 0	x2 = 0.1	x2 = 0.1989	x2 = 0.3011	x2 = 0.4002	x2 = 0.5001	x2 = 0.5997	x2 = 0.6999	x2 = 0.7999	x2 = 0.9
100 kPa	891.7	885.9	880.3	874.4	868.5	862.2	855.4	847.7	840.4	831.5
1000 kPa	892.3	886.3	880.7	874.7	868.8	862.5	855.9	848.6	840.9	832.2
2000 kPa	892.9	886.9	881.3	875.4	869.5	863.2	856.6	849.3	841.5	832.9
5000 kPa	894.6	888.8	883.2	877.3	871.4	865.2	858.5	851.3	843.5	835
10000 kPa	897.4	891.8	886.2	880.4	874.5	868.3	861.7	854.5	846.8	838.2
15000 kPa	900.2	894.6	889.1	883.3	877.4	871.3	864.7	857.6	849.9	841.4
20000 kPa	902.8	897.4	891.9	886.1	880.4	874.2	867.6	860.5	852.8	844.4
30000 kPa	908	902.7	897.3	891.6	885.8	879.7	873.3	866.2	858.6	850.1
40000 kPa	912.9	907.8	902.4	896.7	891.1	885	878.5	871.5	863.9	855.6
50000 kPa	917.5	912.6	907.2	901.6	896	890	883.6	876.6	869	860.7
60000 kPa	921.9	–	–	–	–	–	–	–	–	–

— the NIST ThermoML archive (doi:10.1016/j.jct.2017.03.006)
